Reference: patent US7745450B2, “Pyrazolo[4,3-d]pyrimidines, processes for their preparation and methods for therapy” (Institute of Experimental Botany, priority 2002, dated 2010)
Where two headings read alike, the source gives them in different places.

Key:
B16 = test: In vitro cytotoxic activity, Calcein AM; type: cell-based; settings: Mus musculus, B16, 72 h, three days
MMK1 protein kinase = MMK1 protein kinase (Vicia faba, UniProt A0AAV1B7B8); test: MMK1 protein kinase activity; type: biochemical
Method: Protein extraction and purification of pant CDK by binding to p13^suc1-beads or immunopurification with an antibody specific to the cdc2a-MS protein was carried out as described previously (Bögre et al. 1997, Plant Physiol. 113, 1997, 841-852). The MMK1 protein kinase was purified with a specific antibody from Vicia faba extracts as described by Bögre et al. 1997a, Plant Cell 9, 75-83). Protein kinase activity was measures as described above in Example 20. The quantification of radioactivity incorporated into histone H1 or myelin basic protein was undertaken using phosphoimager (FIG. 2).

[1] = test system: CEM (human lymphoblastoid leukemia); test: In vitro cytotoxic activity, Calcein AM; type: cell-based; settings: Homo sapiens, 72 h, three days
Method: We have been using the following cell lines: HELA (human cervical carcinoma), MCF7 (human breast adenocarcinoma), NIH 3T3 (mouse fibroblasts), HOS (human osteogenic sarcoma), HL 60 (human promyelocytic leukemia), G 361 (human malignant melanoma), K562 (human erythroleukemia), CEM (human lymphoblastoid leukemia). Tested drugs were added to the cell cultures in six different concentration and kept at 37° C. and 5% CO2 for three days. All cell lines were grown in DMEM medium (Gibco BRL) supplemented with 10% (v/v) fetal bovine serum and L-glutamine and maintained at 37° C. in a humidified atmosphere with 5% CO2. 10^4 cells were seeded into each well of 96 well plate, allowed to stabilize for at least 2 h and then tested compounds were added at various concentrations ranging from 200 to 0.2 μM in triplicates. Three days after drug addition Calcein AM solution (Molecular Probes) was added and let to enter the cells for 1 hour. Fluorescence of viable cells was quantified employing Fluoroskan Ascent (Microsystems).

IκB-α kinase = IκB-α kinase inhibition, in vitro kinase assay; type: biochemical
cdk1/cyclin B (CDC2) = cdk1/cyclin B (CDC2) (Homo sapiens, UniProt P06493); test: CDK inhibition assay, cdk1/cyclin B (CDC2) kinase, histone phosphorylation; type: biochemical
Method: Selected compounds were tested for cdk1/cyclin B and cdk2/cyclin E inhibitory activity to determine the basic relationships between their interaction energy of docked complex and the inhibitory activity. Cdk2/cyclin E complex was produced in SIP insect cells co-infected with appropriate baculoviral construct. The cells were harvested 70 hours post infection in lysis buffer (50 mM Tris 7.4 pH, 150 mM NaCl, 5 mM EDTA, 20 mM NaF, 1% Tween 20, protease inhibitors) for 30 min on ice and the soluble fraction was recovered by centrifugation at 14.000 g for 10 min. The protein extract was stored at −80° C. until use. The final point test system for kinase activity measurement was used to carry out experiments on the kinetics under linear conditions. The assay mixture contained 1 mg/ml histone (Sigma Type III-S), 15 μM ATP, 0.2 μCi [γ-^32P] ATP and tested compound in a final volume of 20 μl, all in reaction buffer: 50 mM Hepes 7.4 pH, 10 mM MgCl2, 5 mM EGTA, 10 mM 2-glycerolphosphate, 1 mM NaF, 1 mM DTT and protease inhibitors. […] The measurement of kinase inhibition employed the digital imaging analyzer BAS 1800. The kinase activity was expressed as a percentage of maximum activity and the IC50 value was determined by graphic analysis. The kinase activity is expressed as a percentage of maximum activity, the apparent inhibition constants are determined by graphic analysis from dose-response curves presented on FIG. 1.

[2] = test system: Cytokinin-dependent tobacco callus Nicotiana tabacum L. cv. Wisconsins 38; test: Tobacco callus bioassay for cytotoxicity (herbicidal activity); type: cell-based; settings: Nicotiana tabacum, 672 h
Method: The novel compounds have also been tested in tobacco callus bioassay for cytotoxicity (herbicidal activity) and induction of cell death. The compounds to be tested were dissolved in dimethylsulfoxide (DMSO) and the solution brought up to 10^−3 M with distilled water. […] Cytokinin-dependent tobacco callus Nicotiana tabacum L. cv. Wisconsins 38 Murashige-Skoog medium, containing per 1 liter: 4 μmol nicotinic acid, 2.4 μmol pyridoxine hydrochloride, 1.2 μmol thiamine, 26.6 μmol glycine, 1.37 μmol glutamine, 1.8 μmol myo.inositol, 30 g of sucrose, 8 g of agar, […] α-naphthylacetic acid and 0.5 μmol 6-benzylaminopurine. Sub cultivation was carried out every three weeks. Fourteen days before the bioassay, the callus tissue was transferred to the media without 6-benzylaminopurine. Compounds were tested with two different concentrations of 6-benzylaminopurine (10^−5 M and 10^−6 M). Inhibitory growth activity was determined from the increase in fresh callus weight after four weeks of cultivation. Five replicates were prepared for each concentration tested and the entire test was repeated at least twice.

[3] = read-out: 10^−5 M BAP IC50, 10^−5 M 6-benzylaminopurine, four weeks
[4] = read-out: 10^−6 M BAP IC50, 10^−6 M 6-benzylaminopurine, four weeks

Sequence of MMK1 protein kinase (A0AAV1B7B8 1-394): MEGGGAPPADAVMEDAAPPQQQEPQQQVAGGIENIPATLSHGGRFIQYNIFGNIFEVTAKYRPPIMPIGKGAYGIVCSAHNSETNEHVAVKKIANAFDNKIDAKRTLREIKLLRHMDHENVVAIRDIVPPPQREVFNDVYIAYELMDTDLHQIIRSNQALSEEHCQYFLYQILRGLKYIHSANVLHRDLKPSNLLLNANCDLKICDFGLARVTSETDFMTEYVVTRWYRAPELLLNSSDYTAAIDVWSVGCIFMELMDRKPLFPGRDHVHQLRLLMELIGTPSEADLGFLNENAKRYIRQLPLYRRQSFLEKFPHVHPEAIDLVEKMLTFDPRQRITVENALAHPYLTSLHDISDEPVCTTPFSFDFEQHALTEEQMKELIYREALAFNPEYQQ
Sequence of cdk1/cyclin B (CDC2) (P06493 whole entry, species assumed): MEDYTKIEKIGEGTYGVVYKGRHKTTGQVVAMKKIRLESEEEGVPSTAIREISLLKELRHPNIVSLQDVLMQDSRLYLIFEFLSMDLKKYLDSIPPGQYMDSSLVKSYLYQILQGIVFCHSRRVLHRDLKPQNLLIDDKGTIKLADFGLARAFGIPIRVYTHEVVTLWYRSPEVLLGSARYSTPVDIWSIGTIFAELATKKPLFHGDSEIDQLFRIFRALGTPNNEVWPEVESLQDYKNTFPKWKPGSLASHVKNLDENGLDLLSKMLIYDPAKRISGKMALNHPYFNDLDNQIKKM
Sequence of cdk1/cyclin B (CDC2) (P14635 whole entry partner, species assumed): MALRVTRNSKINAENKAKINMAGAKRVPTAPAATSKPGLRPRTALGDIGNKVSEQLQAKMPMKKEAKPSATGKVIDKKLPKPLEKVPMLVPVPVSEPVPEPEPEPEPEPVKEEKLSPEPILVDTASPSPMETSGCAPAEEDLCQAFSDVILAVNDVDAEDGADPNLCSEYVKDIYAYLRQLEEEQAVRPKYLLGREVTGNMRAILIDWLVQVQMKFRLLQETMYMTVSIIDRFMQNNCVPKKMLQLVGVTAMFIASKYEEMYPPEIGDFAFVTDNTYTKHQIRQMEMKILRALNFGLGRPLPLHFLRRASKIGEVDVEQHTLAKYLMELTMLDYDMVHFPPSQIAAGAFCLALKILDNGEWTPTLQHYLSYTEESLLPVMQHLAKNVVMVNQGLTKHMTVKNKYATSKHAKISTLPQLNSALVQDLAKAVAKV

| Compound | IC50 (MMK1 protein kinase) | IC50 (IκB-α kinase) | IC50 (cdk1/cyclin B (CDC2)) | GI50 (B16) | GI50 [1] | IC50 [2, 3] | IC50 [2, 4] |
| --- | --- | --- | --- | --- | --- | --- | --- |
| CC(C)c1n[nH]c2c(N(C)Cc3ccc(O)c(O)c3)nc(N[C@@H](CO)C(C)C)nc12 | 110 nM |  |  | 4800 nM | 3500 nM |  |  |
| CC(C)c1n[nH]c2c(N(C)CCc3ccc(O)c(O)c3)nc(N[C@@H](CO)C(C)C)nc12 | 150 nM |  |  | 9700 nM | 8400 nM |  |  |
| CC[C@H](CO)Nc1nc(Nc2cc(N)cc(Cl)c2)c2[nH]nc(C(C)C)c2n1 | 20 nM |  |  | 16500 nM | 9400 nM |  |  |
| CCC(CO)Nc1nc(NC(CO)c2ccccc2)c2[nH]nc(C(C)C)c2n1 (centres unmarked) | 210 nM |  |  | 13700 nM | 7900 nM |  |  |
| CC[C@H](CO)Nc1nc(NCc2cccc(C(C)=O)c2)c2[nH]nc(C(C)C)c2n1 | 40 nM |  |  | 19100 nM | 11500 nM |  |  |
| CC(C)c1n[nH]c2c(Nc3cccc(Cl)c3)nc(NCCCN)nc12 |  | 80 nM | 20 nM |  |  | > 50000 nM | 45000 nM |
| CC[C@H](CO)Nc1nc(Nc2ccc(Br)cc2)c2[nH]nc(C(C)C)c2n1 |  | 10 nM | 2 nM |  |  | 38000 nM | 4300 nM |
| CC[C@H](CO)Nc1nc(NCc2cccc(OC(C)=O)c2)c2[nH]nc(C(C)C)c2n1 |  | 400 nM | 70 nM |  |  | > 50000 nM | 28700 nM |
| CC(C)c1n[nH]c2c(Nc3cc(N)cc(Cl)c3)nc(N[C@@H](CO)C(C)C)nc12 |  | 15 nM | 8 nM |  |  | 38000 nM | 4200 nM |
| CC(C)c1n[nH]c2c(NCc3ccccc3)nc(N[C@@H](CO)C(C)C)nc12 |  | 10 nM | 4 nM |  |  | > 50000 nM | 14000 nM |
| CC(C)c1n[nH]c2c(Nc3ccc(N)c(Cl)c3)nc(N[C@@H](CO)C(C)C)nc12 |  | 3 nM | 2 nM |  |  | 16000 nM | 900 nM |
| CC[C@H](CO)Nc1nc(NCc2c(N)cccc2Cl)c2[nH]nc(C(C)C)c2n1 |  | 3.5 nM | 12 nM |  |  | > 50000 nM | 29700 nM |
| CC[C@H](CO)Nc1nc(NCc2ccccc2)c2[nH]nc(C(C)C)c2n1 |  | 30 nM | 10 nM |  |  | > 50000 nM | 28000 nM |
| CC(C)c1n[nH]c2c(Nc3cccc(Cl)c3)nc(NCCN)nc12 |  | 250 nM | 140 nM |  |  | > 50000 nM | 48000 nM |
| CC(C)c1n[nH]c2c(NCc3ccc(Cl)c(N)c3)nc(N[C@@H](CO)C(C)C)nc12 |  | 3 nM | 2 nM |  |  | > 50000 nM | 19400 nM |
| Cc1n[nH]c2c(NCc3ccccc3)nc(NC3CCC(N)CC3)nc12 (centres unmarked) |  | 50 nM | 20 nM |  |  | > 50000 nM | 43000 nM |
| CC(C)c1n[nH]c2c(Nc3ccc(Cl)c(C(=O)O)c3)nc(N[C@@H](CO)C(C)C)nc12 |  | 2 nM | 1 nM |  |  | > 50000 nM | 9600 nM |
| CC(C)c1n[nH]c2c(Nc3ccc(Cl)cc3)nc(N[C@@H](CO)C(C)C)nc12 |  | 1 nM | 0.5 nM |  |  | 24000 nM | 2300 nM |
| CC(C)c1n[nH]c2c(Nc3ccccc3)nc(N[C@@H](CO)C(C)C)nc12 |  | 3 nM | 1 nM |  |  | 42000 nM | 4800 nM |
| CC(C)c1n[nH]c2c(Nc3ccc(O)c(C(=O)O)c3)nc(N[C@@H](CO)C(C)C)nc12 |  | 1 nM | 0.4 nM |  |  | 18000 nM | 1200 nM |
| CC(C)c1n[nH]c2c(Nc3ccc(C(=O)O)c(Cl)c3)nc(N[C@@H](CO)C(C)C)nc12 |  | 2 nM | 0.9 nM |  |  | 26000 nM | 1400 nM |
| Cc1n[nH]c2c(NCc3ccccc3)nc(NC3CCCCC3N)nc12 (centres unmarked) |  | 90 nM | 30 nM |  |  | > 50000 nM | 48000 nM |
| CC[C@H](CO)Nc1nc(Nc2ccc(Cl)c(N)c2)c2[nH]nc(C(C)C)c2n1 |  | 13 nM | 4 nM |  |  | 26000 nM | 1500 nM |

Second part, led by results:

| IC50 (MMK1 protein kinase) | IC50 (IκB-α kinase) | IC50 (cdk1/cyclin B (CDC2)) | Compound | GI50 (B16) | GI50 [1] | IC50 [2, 3] | IC50 [2, 4] |
| --- | --- | --- | --- | --- | --- | --- | --- |
| 900 nM |  |  | CC(=O)c1cccc(CNc2nc(NCCO)nc3c(C)n[nH]c23)c1 | 14200 nM | 13500 nM |  |  |
| 300 nM |  |  | Cc1n[nH]c2c(Nc3cc(N)cc(Cl)c3)nc(NCCO)nc12 | 14500 nM | 13400 nM |  |  |
| 1950 nM |  |  | Cc1n[nH]c2c(N(C)Cc3ccc(O)c(O)c3)nc(NCCO)nc12 | 11500 nM | 10300 nM |  |  |
| 160 nM |  |  | COc1cc(O)c(CNc2nc(NCCO)nc3c(C)n[nH]c23)cc1O | 3700 nM | 4200 nM |  |  |
| 900 nM |  |  | Cc1n[nH]c2c(Nc3cccc(Cl)c3)nc(NCCO)nc12 | 9800 nM | 8900 nM |  |  |
| 90 nM |  |  | COc1cc(O)c(CNc2nc(NCCO)nc3c(C)n[nH]c23)c(O)c1 | 4700 nM | 2800 nM |  |  |
| 250 nM |  |  | Cc1n[nH]c2c(Nc3ccc(N)c(Cl)c3)nc(NCCO)nc12 | 17500 nM | 16200 nM |  |  |
| 11 nM |  |  | CC[C@H](CO)Nc1nc(NCc2ccc(Cl)c(O)c2O)c2[nH]nc(C(C)C)c2n1 | 5600 nM | 3100 nM |  |  |
| 24 nM |  |  | CC[C@H](CO)Nc1nc(NCc2ccc(Cl)c(N)c2)c2[nH]nc(C(C)C)c2n1 | 18700 nM | 11400 nM |  |  |
| 3300 nM |  |  | CC(=O)Oc1ccccc1CNc1nc(NCCO)nc2c(C)n[nH]c12 | 16200 nM | 14500 nM |  |  |
| 2800 nM |  |  | Cc1n[nH]c2c(NCc3ccc(Cl)c(N)c3N)nc(NCCO)nc12 | 6500 nM | 5600 nM |  |  |
|  | 300 nM | 100 nM | CC[C@H](CO)Nc1nc(NCc2ccccc2)c2[nH]nc(C)c2n1 |  |  | > 50000 nM | 37000 nM |
|  | 400 nM | 200 nM | Cc1n[nH]c2c(NCc3ccccc3)nc(NCCCN)nc12 [3-aminopropylamino; benzylamino; methyl] |  |  | > 50000 nM | 45000 nM |
|  | 30 nM | 10 nM | CC[C@H](CO)Nc1nc(Nc2ccc(O)c(C(=O)O)c2)c2[nH]nc(C(C)C)c2n1 |  |  | > 50000 nM | > 50000 nM |
|  | 12 nM | 4 nM | CC[C@H](CO)Nc1nc(NCc2cccc(OC)c2O)c2[nH]nc(C(C)C)c2n1 |  |  | > 50000 nM | 14800 nM |
|  | 12 nM | 7 nM | CC[C@H](CO)Nc1nc(NCc2cccc(Cl)c2O)c2[nH]nc(C(C)C)c2n1 |  |  | 46000 nM | 6700 nM |
|  | 5000 nM | 2000 nM | Cc1n[nH]c2c(NCc3ccccc3)nc(NCCN)nc12 [2-aminoethylamino; benzylamino; methyl] |  |  | > 50000 nM | > 50000 nM |
|  | 15 nM | 6 nM | COc1cccc(CNc2nc(N[C@@H](CO)C(C)C)nc3c(C(C)C)n[nH]c23)c1O |  |  | > 50000 nM | 21600 nM |
|  | 4 nM | 2 nM | CC(C)c1n[nH]c2c(NCc3cccc(Cl)c3O)nc(N[C@@H](CO)C(C)C)nc12 |  |  | > 50000 nM | 9400 nM |
